In BindingDB's records for doi:10.1021/jm960288w (Drew University, 1997) one finds IC50 data, which are given here for two molecules.

Molecules are shown by their SMILES.

The assay in a line: Compound was tested for inhibition of [3H]WIN-35428 binding at the dopamine transporter in brain from guinea pig striatal membrane.

As for `OC1(c2ccc(Cl)cc2)c2ccccc2C2=NCCCN21` (configuration not stated) [9-(4-Chloro-phenyl)-1,2,3,9-tetrahydro-4,9a-diaza-fluoren-9-ol], the IC50 (as a rule, the concentration needed to halve the response being measured) came to 4.2 nM.
The same measure for `OC1(c2ccc(Cl)cc2)c2ccccc2C2=NCCCCN21` (configuration not stated) [7-(4-Chloro-phenyl)-2,4,5,7-tetrahydro-3H-[1,3]diazepino[2,1-a]isoindol-7-ol]: 2.7 nM.
